Laboratory results: publication PMC2064103 (The Journal of Cell Biology, 2007)

Experiments:
Assay in all cases: radiolabelled glycopeptide formation, ConA Sepharose capture, gamma counting
[1] = tested on: T. vaginalis OST; assay type: biochemical, Trichomonas vaginalis; conditions: 10 μM acceptor tripeptide; Mg2+, Mn2+, pH 7.4; non-cooperative
[2] = tested on: E. histolytica OST; assay type: biochemical, Entamoeba histolytica; conditions: 15 μM acceptor tripeptide; Mg2+, Mn2+, pH 7.4; non-cooperative
[3] = tested on: T. cruzi OST; assay type: biochemical, Trypanosoma cruzi; conditions: 10 μM acceptor tripeptide; Mg2+, Mn2+, pH 7.4; non-cooperative

Km [1] [µM] | Km [2] [µM] | Km [3] [µM] | Substance
0.22 | 0.72 |  | M5GN2-PP-Dol
 |  | 0.49 | M9GN2-PP-Dol
